These results are taken from US9206196B1, “Derivatives of benzoxazino quinoline, benzoxazino isoquinoline and processes for their preparation” (Council of Scientific & Industrial Research, priority 2014, dated 2015).

Each structure is given as a SMILES string.

This assay relates to Plasmodium falciparum (3D7). The assay can be described thus: Anti-malarial screen, parasite growth by SybrGreen staining. The class given is cell-based. The settings on record: dose response assay, test molecules from 10 μM to 1 nM, 60 hours incubation, SybrGreen read out. As to the method:
Plasmodium falciparum (3D7; Malaria Research and Reference Reagent Resource Center ID NO: MRA-102) is cultured in the laboratory as per standard protocols. Briefly, P. falciparum is cultured using 2% hematocrit washed RBCs, separated from freshly collected human blood, in Roswell Park Memorial Institute (RPMI) medium containing glutamine, sodium bicarbonate and antibiotics. Parasites are synchronized using either 5% sorbitol treatment or by enriching late stage parasites using a 70% percol cushion. 200 μls of the diluted parasite culture at 2% parasitemia and 2% hematocrit, is added to each well in a 96 well plate pre-seeded with the compound of interest at the required concentration. In general, compounds being screened for the first time are tested at a single concentration of 10 μM to detect any effect they may have on parasite growth. The master stocks and dilutions of the compounds are prepared in cell culture grade DMSO. NOTE: DMSO only treatment control is done and the results are used for normalizing the data obtained from compound treatment. All compounds are plated in triplicates. Each 96 well plate also includes negative control (compound untreated culture) and positive control (standard anti-malarial treated culture). Standard anti-malarials used are chloroquine, artemisinine and atovaquone, each at 1 μM concentration. After plating, the culture is incubated in standard growth condition for 60 hours, after which the cultures are processed for testing the effect of compounds on parasite growth as given below. We have standardized a modified SybrGreen dye based staining protocol (Plouffe D et. al. in Proc Natl Acad Sci, 2008, 105(26), 9059-64) for estimating parasite growth. SybrGreen dye binds to DNA and only the DNA bound dye gives a specific fluorescence emission ([…]) when excited ([…]). Since only the parasites have DNA (as RBCs are devoid of nucleus), the SybrGreen signal is a direct indictor of parasite growth. We have standardized a plate reader based read out assay for quantifying relative parasite growth (or conversely % inhibition of growth) in untreated, standard anti-malarial treated and test molecules treated P. falciparum cultures. 25 μl of 10× staining solution (0.5% Triton X100 & 10× SybrGreen dye in phosphate buffered saline) is added to each sample in 96 well plate, mixed and incubated for 30 min before taking readings. Data obtained is then tabulated to compare parasite growth between untreated, standard anti-malarial treated and compound treated parasite cultures. Compounds showing greater than 80% reduction in parasite growth are selected from this primary screening for carrying out dose response analysis using the respective test molecules from 10 μM to 1 nM. Data from this experiment is used for the calculation of IC50 values for the respective test molecules. Data from the preliminary screen (at 10 μM only) is shown in FIG. 1 and data from the dose response experiment is shown in FIG. 2.
Usually IC50 stands for the concentration that gives 50% inhibition. In turn, `O=C1C(O)=C([C@H]2CC[C@H](c3ccc(Cl)cc3)CC2)C(=O)c2ccccc21` [Atovaquone, reference compound] yielded a concentration for half-maximal inhibition (IC50) of 0.00711 µM. Regarding `O=C(c1ccccc1)C1(c2ccccc2)OC2C=Cc3ccccc3N2c2ccccc21` (stereo not drawn), the midpoint of inhibition, the IC50, lay at 2.64 µM. The same measure for `C1=CC2OC(c3ccccc3)(c3ccccc3)c3ccccc3N2c2ccccc21` (stereo not drawn): 3.87 µM; for `Cc1cc2c(cc1C)N1c3ccccc3C=C[C@@H]1O[C@@H]2c1ccc(Cl)cc1`: 3.51 µM. Turning to `O=C1C=CC2(C=C1)OC1C=Cc3ccccc3N1c1ccccc12` (stereo not drawn), the IC50 turned out to be 1.69 µM. This IC50 lies about 2.1-fold lower than the previous one. The same measure for `CC1=C[C@@H]2O[C@H](c3ccc(Cl)cc3)c3ccccc3N2c2ccccc21`: 3.8 µM.
